Experimental findings from US20150206621A1, “Electrical Insulator Comprising An Organofluorine Compound And Method For Producing It” (priority 2012, published 2015) are described below.

The data set can be described thus: toxicity / lethal concentration LC50. It counts as in vivo.

Consider `FC(F)(F)COC(F)(F)F` [2,2,2-trifluoroethyl-trifluoromethyl ether], for which the “risk for human toxicity (in words)” value (concluded from available results of mammalian HFC (hydrofluorocarbon) tests) is “low risk for human toxicity”.

Regarding `O=C(C(F)(F)F)C(F)(C(F)(F)F)C(F)(F)F` [C5-ketone, 1,1,1,3,4,4,4-heptafluoro-3-(trifluoromethyl)butan-2-one], the “toxicity (in words)” value (in vivo) was “practically non-toxic”. For `O=C(C(F)(F)C(F)(F)F)C(F)(C(F)(F)F)C(F)(F)F` [C6-ketone, 1,1,1,2,4,4,5,5,5-Nonafluoro-2-(trifluoromethyl)pentan-3-one], under “in vivo”, the LC50 result is “about 100'000 ppm” and the “toxicity (in words)” value was “non-toxic”.
